Patent EP1028734B1, “USE OF SPECIFIC STEADY-STATE R-TYPE CALCIUM CHANNEL BLOCKERS” (priority 1997, dated 1999)
Entries after “also recorded” stand apart in the source; their conditions may differ.

Assays:
mouse paw oedema = assay type: in vivo, mice; conditions: i.p.
Experimental: In this experiment (N =5 to 6 animals per group), the anti-oedemagenic action of compounds MV 8608 and MV 8612 against bradykinin and several mediators which are reported to be involved in the inflammatory processes, was evaluated. The procedures used to perform these experiments have been reported elsewhere (Neves et al., 1993, Eur. J. Pharmacol. 243:213-219; Campos et al., 1995, Br. J. Pharmacol. 114:1005-1013; Campos et al., 1996, Br. J. Pharmacol. 117:793-798; Eur. J. Pharmacol. 316:227-286). […] As reported previously, in rats treated […] prior to a systemic injection of LPS, both B1 and B2 kinin selective agonists caused marked oedema formation (Figures 37C and D (Campos et al., 1996, supra)).
When tested in mice, MV 8612 (40 to 160 nmol/paw) inhibited bradykinin and carrageenan-induced paw oedema in mice in a dose-dependent manner (Figures 46A and B).

R-type Ca^2+ channel [1] = test: confocal Fluo-3 3-dimension measurement of cytosolic [Ca]c and nuclear [Ca]n; assay type: cell-based, chick, human
[2] = writhe responses in mice (acetic acid, acetylcholine, kaolin); assay type: in vivo; conditions: 2.7 to 27 mol/kg, i.p.
From the text: The antinociceptive actions of compound MV 8612 and MV 8608 were investigated in different models of nociception in mice as reported previously (Vaz et al., 1996, J. Pharmacol. Exp. Ther. 278:304-312).

[3] = bradykinin-induced skin vascular permeability in rats; assay type: in vivo, rat
Experimental: To assess further the anti-inflammatory action of MV 8612 and MV 8608, their effects against the inflammatory responses caused by several mediators of inflammation in a murine model of pleurisy were tested (Saleh et al., 1996, Br. J. Pharmacol 118:811-819). In addition, both compounds were tested against the increase of vascular permeability caused by bradykinin in the rat skin (Neves et al., 1993b, Phytotherapy Research. 7:356-362).

rat uterus = conditions: Calixto et al., 1987; cited from earlier work
[4] = tested on: TTX-sensitive fast Na^+ current; test: whole-cell voltage clamp, TTX-sensitive fast Na+ current in single heart cell (MV8608); assay type: cell-based; conditions: 10^-11M to 10^-7M, n=5
Experimental: (§1) Single cells of different types in culture were prepared from biopsies of human, chick and rabbit. Known and accepted methods for the isolation of fast Na^+ current, T, L and R-type Ca^2+ channels as well as delayed outward K^+ current were used (Bkaily 1994, supra).
(§2) The compounds to be tested are added to the appropriate extracellular solution after recording a stable ionic current or normal steady-state level of [Ca]n and [Ca]n The effect of different concentrations of compounds are tested on the different type of current and [Ca]i of the different cell types. The effect of each concentration of the compounds in function of the time of exposure are then determined. Once the steady-state effect is reached, the second concentration is added, etc.
In one series of experiments (n=5), the effect of different concentrations of MV8608 (10^-11M to 10^-7M) on the TTX-sensitive fast Na^+ current were tested using the whole-cell voltage clamp technique and experimental conditions reported elsewhere (Bkaily et al., 1988, supra; 1993, supra).

[5] = tested on: human aortic vascular smooth muscle cell line; test: spontaneous proliferation of human aortic vascular smooth muscle cell line; assay type: cell-based; conditions: MV8608 10^-8M, MV8612 10^-8M, nifedipine 10^-7M, Figure 28
R-type Ca^2+ channel [6] = test: cell attached single channel patch clamp, R-type Ca2+ channel in human aortic vascular smooth muscle cell line; assay type: cell-based
Experimental: Also, for the R-type Ca^2+ channel current, the effect of the compounds are tested on the R-type Ca^2+ channel amplitude, voltage dependency and probability of opening, by using the cell-attached patch clamp technique (Bkaily 1994, supra; 1996, supra) and intra and extra patch pipette application of the drug.
In another series of experiments (n=7), using the cell attached patch clamp technique (Bkaily G. 1994, supra; Bkaily G. et al., 1996, supra), the effect of 10^-7M of MV8608 on the R-type Ca^2+ channel in human aortic vascular smooth muscle cell line was tested. […] In a second series of experiments (n=3), the patch pipette solution was free of MV8608 and after recording the single channel activities at different voltages, MV8608 (final concentration of 10^-7M) was applied to the extra-patch pipette solution containing 140mM KCI (where the rest of the cell is bathing). This experiment was designed to verify whether MV8608 crossed the cell membrane and if so, whether its effect from the internal side of the channel under the patch is the same as that when applied at the outer side thereof. […] Such a pattern of increase of probability of opening and the open duration accompanied with the sporadic decrease of the single channel current amplitude has never been observed when MV8608 was applied at the outer side of the single channel under the patch pipette.
In another series of experiments (n=7), the effect of 10^-7M of MV8612 was tested on the R-type Ca^2+ in human aortic VSM cells, using the single channel cell attached recording technique and intra and extra patch pipette application of drugs.
In one series of experiments (n=3), MV8612 (total concentration, 10^-7M) was only applied to the patch pipette. […] As for MV8608, in one series of experiments (n=4), MV8612 (10^-7M) was only applied to the extra-patch pipette, in order to verify if the compound penetrates into the cytosol and if so, how it affects the R-type Ca^2+ channel activity.

human lymphocyte = human lymphocyte proliferation in vitro; assay type: cell-based; conditions: MV 8612, MV 8608 14.5 to 116 M
Experimental: In a separate series of experiments, compounds MV 8612 and MV 8608 were tested to analyze whether they interfered with human lymphocyte proliferation "in vitro". These experiments were carried out as reported previously (Moraes et al., 1996, Eur. J. Pharmacol. 312:333-339).

T-type Ca^2+ current = test: whole-cell voltage clamp, T-type Ca2+ current in heart cells; assay type: cell-based; conditions: 10^-9M to 10^-7M, n=7
Experimental: as §1, §2
In another series of experiments (n=7), the effect of different concentrations of MV8608 were tested on the T-type Ca^2+ current (lCa) using the whole-cell voltage clamp technique and classical experimental conditions described elsewhere by the inventors (Bkaily G. et al., 1991, supra; 1992, supra; 1993, supra). […] As it can be seen in that figure, the inset effect of MV8608 in T-type ICa is immediate.

(15R, 16R, 20S)-14, 16:15,20:16,21-triepoxi-15,16-seco 14β, 17α-pregn-5-ene-3β, 15-diol [MV8608]
paw oedema induced by histamine (mouse paw oedema): dose-related inhibition | paw oedema induced by serotonin (mouse paw oedema): dose-related inhibition | bradykinin-induced paw oedema (mouse paw oedema; 30 min prior): unaffected | sustained increase of [Ca]c and [Ca]n induced with high concentration of PAF (10^-7M) (R-type Ca^2+ channel [1]; 10^-6M of compound, back to the control level, Figure 29B): significantly decrease | cytosolic and nuclear Ca^2+ sustained overload induced by 30mM KCl and PAF (R-type Ca^2+ channel [1]; 10^-7M of compound, nifedipine present): blocked both the cytosolic and nuclear Ca^2+ sustained overload | prevention of stimulation of the R-type Ca^2+ channel by sustained depolarization (R-type Ca^2+ channel [1]; 10^-8 M and 10^-7 M, dose-dependent): prevented | prevention of high PAF (10^-7 M) action (R-type Ca^2+ channel [1]; 10^-9M of compound): succeeded in preventing | sustained depolarization induced sustained increase of [Ca]c and [Ca]n (R-type Ca^2+ channel [1]; heart cells, Figure 29 panel A): blocked completely | antinociceptive action in the same model of pain (writhing) [2]: only partial or even no antinociceptive action | increase of vascular permeability caused by bradykinin in the rat skin [3]: antagonised in a dose-related manner | contraction of rat uterus induced by BK (rat uterus): selective in its ability to inhibit | effect on the TTX-sensitive fast Na^+ current [4]: no effect | spontaneous proliferation [5]: significantly decreased | single channel conductance of R-type Ca^2+ channel (R-type Ca^2+ channel [6]; 10^-7M applied in the patch pipette): without affecting | single channel amplitude and probability of opening of the single R-type Ca^2+ channel (R-type Ca^2+ channel [6]; 10^-7M applied in the patch pipette, 10^-6M nifedipine present): decreased the single channel amplitude and probability of opening | single channel current amplitude (R-type Ca^2+ channel [6]; 10^-7M applied to the extra-patch pipette solution): spontaneous decrease and release of the blockade | opening of the R-type channel (probability, duration, frequency) (R-type Ca^2+ channel [6]; 10^-7M applied to the extra-patch pipette solution (140mM KCl)): increased the probability and duration of opening | human lymphocyte proliferation (human lymphocyte): graded inhibition | T-type ICa amplitude (T-type Ca^2+ current): no effect; also recorded: relative weak depressing effect
